In PubChem BioAssay (NCI) one finds TGI and GI50 data, which are given here for 17 compounds.

What all share (test): NCI tumour cell line growth inhibition, 48 h
For assay [1], the system named is SK-MEL-5 melanoma.
For assay [2], the system named is UACC-257 melanoma.
For assay [3], the system named is OVCAR-5 ovarian.
The test system of assay [4] is NCI-H226 lung.
In assay [5] the test system is DLD-1 colon.
The subject of assay [6] is KM20L2 colon.
Assay [7] concerns SNB-78 CNS.
The subject of assay [8] is PC-3 prostate.
For assay [9], the system named is MDA-MB-435.
Assay [10] deals with BT-549 breast.

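Five compound concentrations were applied to cells in 96-well plates for 48 hours; endpoints were derived by simple linear interpolation of the resulting dose-response curve. The concentration for 50% growth inhibition is given as GI50. TGI marks complete inhibition of growth.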 Some results are limits rather than exact numbers.

Turning to `O=c1c2ccccc2nc(-c2ccccc2)n1NC(=S)Nc1ccccc1`, the TGI in assay [1], in [2], in assay [3], in assay [4] and in assay [5] was > 100 µM each time.
`CC(C)(C)OC(=O)N1N=NC2C1C1CC(OCc3ccccc3)(OCc3ccccc3)C2O1` (stereo unspecified): the TGI in [1] is 32.6 µM; in assay [2] it was 63.7 µM; in assay [6], > 100 µM; in assay [3] it was > 100 µM; in assay [4] it was 55.4 µM; in assay [5] it was > 100 µM. The TGI in [7] was > 100 µM.
In the case of `Oc1ccc(Br)cc1C=Nc1ccc(N=Cc2cc(Br)ccc2O)cc1`, the TGI in assay [1], in assay [2], in assay [6], in assay [3], in assay [4] and in assay [5] was > 100 µM in each case. Moreover, the TGI in assay [7] was > 100 µM.
For the compound `CC1=C(C(=O)NNS(=O)(=O)c2ccc(C)cc2)CC(C(=O)NNS(=O)(=O)c2ccc(C)cc2)=C(C)N1`, the TGI in assay [2], in assay [6], in [3], in [4], in assay [5] and in assay [7] was > 100 µM in each case.
`C=CCn1c2c(sc1=S)C(S)N=CN2` (stereo unspecified): the TGI in [1], in assay [2], in assay [6], in assay [3], in assay [4] and in [5] was > 100 µM each time. The TGI in assay [7] is > 100 µM.
With `O=C1C(=O)N(c2cc(Cl)ccc2Cl)C(=O)C(=O)C1c1nc2ccccc2o1`, the TGI in assay [1], in [2], in assay [6], in assay [3], in [5] and in assay [7] was > 100 µM each time.
`Cc1cccc(C)c1NC(=O)C(=O)CC(=O)c1cccc([N+](=O)[O-])c1`: the TGI in assay [1], in assay [2], in [6], in assay [3], in assay [4] and in assay [5] was > 100 µM each time. In addition, the TGI in [7] is > 100 µM.
Consider `COc1cc(C(=O)N2CCc3c([nH]c4c([N+](=O)[O-])c(OC)ccc34)C2C)cc(OC)c1OC` (stereo unspecified), for which the TGI in [2], in assay [6], in assay [3], in assay [4], in [5] and in assay [7] was > 100 µM throughout.
Regarding `Cc1cc(C)n(-c2nnc3n2N=C(c2ccc(-c4ccccc4)cc2)CS3)n1`, the GI50 in assay [1] was 2.46 µM; in [8], 3.15 µM; in [2] it was 4.99 µM; in [9], 1.71 µM; in assay [10], 3.69 µM; in assay [3] it was 5.3 µM. Moreover, the GI50 in assay [4] was 4.24 µM. In addition, the TGI in assay [1] is 5.88 µM; in assay [8], > 100 µM; in assay [2], > 100 µM; in assay [9] it was 4.46 µM; in [10], > 100 µM; in assay [3], > 100 µM. Besides, the TGI in [4] is > 100 µM.
Regarding `C/C(=N\NC(=S)N1CC2CCC(CC2)C1)c1ccccn1`, the GI50 in assay [1] was 0.133 µM; in [8], 0.026 µM; in assay [2] it was 0.0214 µM; in assay [9] it was 0.141 µM; in assay [10] it was 0.135 µM; in assay [3], 0.0949 µM. Besides, the GI50 in [4] was 0.394 µM. The TGI stood at 0.852 µM in assay [1]; 1.75 µM in assay [8]; 0.357 µM in [2]; 1.64 µM in assay [9]; 1.84 µM in assay [10]; 2.73 µM in assay [3]. The TGI in assay [4] is 1.91 µM.
As to `COC1=C(Br)C(=O)c2nc(C)ccc2C1=O`, the TGI in [1] turned out to be 32 µM; in [2] it was 26.6 µM; in [6], 33.3 µM; in [3] it was 34.7 µM; in assay [4] it was 38.2 µM; in assay [5] it was 22.2 µM. The compound further returned a TGI in assay [7] of 41.6 µM.
For the compound `O=S1(=O)OCCOS(=O)(=O)C1Cl`, the TGI in [1], in assay [2], in assay [4], in assay [5] and in assay [7] was > 100 µM each time.
On to `OCCNCCOc1ccc(/C(=C(/Cl)c2ccccc2)c2ccccc2)cc1`, for which the TGI came to 19.2 µM in assay [1]; 12 µM in [2]; 8.56 µM in assay [6]; 28.3 µM in [3]; 45 µM in [4]; 27.4 µM in [5]. Besides, the TGI in assay [7] is 23.6 µM.
For `O=C(O)CSc1n[nH]c(Cc2ccccc2)n1`, the TGI in [1], in assay [2], in assay [3], in assay [4], in assay [5] and in [7] was > 100 µM each time.
As for `COc1cc(C(=O)C/C(CCC(=O)Nc2ccc(Cl)cc2Cl)=N/NC(=O)C(=O)NN)ccc1O`, the TGI in [1], in assay [2], in assay [6], in [3], in assay [4] and in [5] was > 100 µM throughout.
For `CC1=C(C(=O)Nc2ccccc2)C(c2ccc(C3C(C(=O)Nc4ccccc4)=C(C)NC(C)=C3C(=O)Nc3ccccc3)cc2)C(C(=O)Nc2ccccc2)=C(C)N1`, the TGI in assay [1] was determined as 6.22 µM; in assay [8], 12.5 µM; in [2], 5.06 µM; in [6], 4.94 µM; in assay [9], 5.83 µM; in assay [10] it was 8.67 µM. In addition, the TGI in assay [3] is 17.6 µM; in assay [4] it was 16 µM; in assay [5] it was 8.15 µM.
On to `Nc1ccc2[nH]cc(CCC(=O)O)c2c1`, for which the TGI in assay [1], in assay [8], in [2], in [9], in assay [10] and in assay [3] was > 100 µM each time. For the same compound, the TGI in [4] was > 100 µM.
